Patent US9247759B2, “Identification of human T2R receptors that respond to bitter compounds that elicit the bitter taste in compositions, and the use thereof in assays to identify compounds that inhibit (block) bitter taste in compositions and use thereof” (SENOMYX, INC., priority 2007, dated 2016)
Read-outs that look alike come from different tables or passages of the source.

Key:
hT2R3 = hT2R3 (Homo sapiens (Human), UniProt Q9NYW6); assay: hT2R panel inhibition, transient HEK293 G16g44, agonist Chloroquine pH6.5 50 μM; format: cell-based; conditions: HEK293, compound at 25 μM; receptor activated to EC80 with the corresponding agonist; read-out: screening result against bitter receptor 3
Chain of hT2R3 (Q9NYW6 whole entry): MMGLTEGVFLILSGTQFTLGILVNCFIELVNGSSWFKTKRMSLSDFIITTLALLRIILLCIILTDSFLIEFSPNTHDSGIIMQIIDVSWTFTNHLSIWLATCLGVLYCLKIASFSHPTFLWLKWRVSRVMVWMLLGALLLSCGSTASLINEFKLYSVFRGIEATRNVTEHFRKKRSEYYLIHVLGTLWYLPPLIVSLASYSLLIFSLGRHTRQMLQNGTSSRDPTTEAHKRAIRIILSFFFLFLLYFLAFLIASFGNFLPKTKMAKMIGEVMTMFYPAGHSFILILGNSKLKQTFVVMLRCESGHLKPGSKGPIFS
Procedure: (§1) Specifically, in order to evaluate the inhibitory selectivity of the Compound C compound, this compound was tested against 22 human T2Rs which were deorphaned by Senomyx. These receptors and the bitter ligands that activate these human T2Rs are reported in earlier patent applications which are incorporated by reference herein. These 22 human T2Rs are hT2R1, 3, 4, 5, 7, 8, 9, 10, 13, 14, 16, 44, 51, 54, 55, 61, 63, 64, 65, 67, 71 and 75. The amino acid and nucleic acid sequences of all of these T2Rs may be found in these earlier patent applications. These human T2Rs were each individually transiently transfected into HEK293 cells that stably express the promiscuous G protein G16g44 and functional assays were effected using these receptors as disclosed in these same patent applications. […] The ligands were used at EC80 concentration levels. The list of bitter ligands utilized and the tested ligand concentrations are contained in Table 5 of this example.
(§2) Relating to the foregoing, FIG. 5 contains experimental results wherein Compound C was tested with different agonist compounds. The inhibition activity is represented by the reduction of receptor activity in the presence of Compound C. […] These 13 hT2Rs are hT2R3, 7, 10, 14, 16, 44, 51, 55, 61, 63, 64, 65, and 71.

hT2R5 = hT2R5 (Homo sapiens (Human), UniProt Q9NYW4); assay: hT2R panel inhibition, transient HEK293 G16g44, agonist Picoline 10 mM; format: cell-based; conditions: HEK293, compound at 25 μM; receptor activated to EC80 with the corresponding agonist; read-out: screening result against bitter receptor 5
Chain of hT2R5 (Q9NYW4 whole entry): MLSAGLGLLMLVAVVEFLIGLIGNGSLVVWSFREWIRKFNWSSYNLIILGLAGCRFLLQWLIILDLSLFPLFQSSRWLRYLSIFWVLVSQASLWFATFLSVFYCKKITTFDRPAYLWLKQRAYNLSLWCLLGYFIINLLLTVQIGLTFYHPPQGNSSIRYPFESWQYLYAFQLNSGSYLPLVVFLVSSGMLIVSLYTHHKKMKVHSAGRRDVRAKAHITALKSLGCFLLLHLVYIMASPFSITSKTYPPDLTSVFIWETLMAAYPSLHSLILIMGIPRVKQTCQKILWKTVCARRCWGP
Procedure: as §1, §2

hT2R10 = hT2R10 (Homo sapiens (Human), UniProt Q9NYW0); assay: hT2R panel inhibition, transient HEK293 G16g44, agonist Strychnine 50 μM; format: cell-based; conditions: HEK293, read-out: screening result against bitter receptor 10, compound at 25 μM; receptor activated to EC80 with the corresponding agonist
Chain of hT2R10 (Q9NYW0 whole entry): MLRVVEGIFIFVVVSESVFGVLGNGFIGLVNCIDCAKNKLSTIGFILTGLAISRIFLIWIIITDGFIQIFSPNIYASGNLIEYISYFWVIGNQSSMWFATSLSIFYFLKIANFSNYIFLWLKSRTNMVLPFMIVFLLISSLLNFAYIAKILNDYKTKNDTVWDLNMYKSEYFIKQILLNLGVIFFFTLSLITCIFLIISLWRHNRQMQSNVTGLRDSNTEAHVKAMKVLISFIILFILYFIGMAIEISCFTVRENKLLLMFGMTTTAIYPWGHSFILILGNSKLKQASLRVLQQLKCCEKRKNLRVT
Procedure: as §1, §2

hT2R14 = hT2R14 (Homo sapiens (Human), UniProt Q9NYV8); assay: hT2R panel inhibition, transient HEK293 G16g44, agonist Aristolochic Acid 2 μM; format: cell-based; conditions: HEK293, compound at 25 μM
Chain of hT2R14 (Q9NYV8 whole entry): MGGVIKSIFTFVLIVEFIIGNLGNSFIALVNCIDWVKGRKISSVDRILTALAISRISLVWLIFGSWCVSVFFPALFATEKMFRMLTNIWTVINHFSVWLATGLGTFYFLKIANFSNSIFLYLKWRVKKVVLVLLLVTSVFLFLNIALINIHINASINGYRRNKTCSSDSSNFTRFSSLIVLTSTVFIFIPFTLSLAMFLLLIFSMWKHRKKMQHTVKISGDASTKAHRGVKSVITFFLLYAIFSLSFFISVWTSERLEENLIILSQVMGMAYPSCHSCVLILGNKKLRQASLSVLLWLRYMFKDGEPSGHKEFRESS
Method in brief: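 Agonist challenge was at EC80, with 0.5 mM andrographolide on hT2R8 and 2 μM aristolochic acid on hT2R14. Inhibition was measured in functional assays in HEK293 cells that stably carry the promiscuous G protein G16g44 and were transiently transfected with the individual receptor.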

hT2R16 = hT2R16 (Homo sapiens (Human), UniProt Q9NYV7); assay: hT2R panel inhibition, transient HEK293 G16g44, agonist Salicin 1 mM; format: cell-based; conditions: HEK293, compound at 25 μM
Chain of hT2R16 (Q9NYV7 whole entry): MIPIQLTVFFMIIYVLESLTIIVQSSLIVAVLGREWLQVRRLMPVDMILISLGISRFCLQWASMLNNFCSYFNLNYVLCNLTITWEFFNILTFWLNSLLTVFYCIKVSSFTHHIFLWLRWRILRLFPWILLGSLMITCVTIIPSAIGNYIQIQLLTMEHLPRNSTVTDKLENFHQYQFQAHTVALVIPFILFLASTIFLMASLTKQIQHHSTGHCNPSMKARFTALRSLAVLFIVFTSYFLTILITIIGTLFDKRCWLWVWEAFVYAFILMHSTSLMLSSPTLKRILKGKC
Procedure: as §1, §2

hT2R44 = assay: hT2R panel inhibition, transient HEK293 G16g44, agonist Denatonium 0.5 μM; format: cell-based, human; conditions: compound at 25 μM; for screening result against bitter receptor 44: receptor activated to EC80 with the corresponding agonist
Method in brief: (§3)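 One receptor per transfection, EC80 agonist, activity drop with compound = inhibition.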

hT2R54 = assay: hT2R panel inhibition, transient HEK293 G16g44, agonist Ranitidine 5 mM; format: cell-based, human; conditions: compound at 25 μM; for screening result against bitter receptor 54: receptor activated to EC80 with the corresponding agonist
Procedure: as §1, §2

hT2R55 = assay: hT2R panel inhibition, transient HEK293 G16g44, agonist Cinchonine 150 μM; format: cell-based, human; conditions: compound at 25 μM; for screening result against bitter receptor 55: receptor activated to EC80 with the corresponding agonist
Procedure: as §1, §2

hT2R61 = hT2R61 (Homo sapiens (Human), UniProt P59537); assay: hT2R panel inhibition, transient HEK293 G16g44, agonist Aristolochic Acid 25 nM; format: cell-based; conditions: HEK293, compound at 25 μM
Chain of hT2R61 (P59537 whole entry): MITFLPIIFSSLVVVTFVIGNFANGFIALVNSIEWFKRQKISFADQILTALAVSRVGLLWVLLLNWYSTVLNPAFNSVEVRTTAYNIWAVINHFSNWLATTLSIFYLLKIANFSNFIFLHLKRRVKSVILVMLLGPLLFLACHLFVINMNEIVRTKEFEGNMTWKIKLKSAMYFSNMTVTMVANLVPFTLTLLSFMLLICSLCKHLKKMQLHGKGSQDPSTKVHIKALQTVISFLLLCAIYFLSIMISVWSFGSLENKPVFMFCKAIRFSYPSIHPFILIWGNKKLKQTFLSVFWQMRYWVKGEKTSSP
Method in brief: as §3

hT2R64 = hT2R64 (Homo sapiens (Human), UniProt P59538); assay: hT2R panel inhibition, transient HEK293 G16g44, agonist Aristolochic Acid 1 μM; format: cell-based; conditions: HEK293, compound at 25 μM
Chain of hT2R64 (P59538 whole entry): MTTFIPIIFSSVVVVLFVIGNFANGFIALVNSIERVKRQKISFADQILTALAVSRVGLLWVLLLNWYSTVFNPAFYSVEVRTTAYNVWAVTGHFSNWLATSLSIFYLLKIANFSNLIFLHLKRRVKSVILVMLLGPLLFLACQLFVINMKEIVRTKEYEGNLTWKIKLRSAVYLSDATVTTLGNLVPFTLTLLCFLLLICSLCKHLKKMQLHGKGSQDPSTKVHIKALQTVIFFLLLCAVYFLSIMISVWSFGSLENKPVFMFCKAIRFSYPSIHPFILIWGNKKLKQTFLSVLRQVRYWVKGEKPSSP
Method in brief: as §3

hT2R65 = assay: hT2R panel inhibition, transient HEK293 G16g44, agonist Oleuropein 1 mM; format: cell-based, human; conditions: compound at 25 μM; receptor activated to EC80 with the corresponding agonist
Procedure: as §1, §2

hT2R67 = assay: hT2R panel inhibition, transient HEK293 G16g44, agonist Andrographolide 5 μM; format: cell-based, human; conditions: compound at 25 μM; for screening result against bitter receptor 67: receptor activated to EC80 with the corresponding agonist
Procedure: as §1, §2

hT2R71 = hT2R71 (Homo sapiens (Human), UniProt P59536); assay: hT2R panel inhibition, transient HEK293 G16g44, agonist Picric Acid 10 μM; format: cell-based; conditions: HEK293, compound at 25 μM
Chain of hT2R71 (P59536 whole entry): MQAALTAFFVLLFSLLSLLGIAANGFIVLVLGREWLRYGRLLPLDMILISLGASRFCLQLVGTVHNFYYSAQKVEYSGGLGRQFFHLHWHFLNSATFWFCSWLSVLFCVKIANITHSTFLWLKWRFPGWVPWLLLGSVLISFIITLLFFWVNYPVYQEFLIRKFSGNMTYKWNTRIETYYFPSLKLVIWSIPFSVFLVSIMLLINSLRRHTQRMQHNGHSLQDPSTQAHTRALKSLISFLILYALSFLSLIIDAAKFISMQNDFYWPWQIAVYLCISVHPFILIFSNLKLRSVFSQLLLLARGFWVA
Method in brief: as §3

hT2R7 = hT2R7 (Homo sapiens (Human), UniProt Q9NYW3); assay: hT2R panel inhibition, transient HEK293 G16g44, agonist Chloroquine pH6.5 10 mM; format: cell-based; conditions: HEK293, compound at 25 μM; receptor activated to EC80 with the corresponding agonist; read-out: screening result against bitter receptor 7
Chain of hT2R7 (Q9NYW3 whole entry): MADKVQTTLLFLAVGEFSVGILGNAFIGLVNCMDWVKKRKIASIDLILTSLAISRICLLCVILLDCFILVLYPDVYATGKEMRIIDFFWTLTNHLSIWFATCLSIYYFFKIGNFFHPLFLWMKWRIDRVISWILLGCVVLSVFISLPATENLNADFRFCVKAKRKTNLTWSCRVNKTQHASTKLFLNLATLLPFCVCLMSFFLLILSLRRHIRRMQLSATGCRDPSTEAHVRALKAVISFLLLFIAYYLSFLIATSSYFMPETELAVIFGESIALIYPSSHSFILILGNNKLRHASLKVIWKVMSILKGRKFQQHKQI
Procedure: as §1, §2

hT2R51 = hT2R51 (Homo sapiens (Human), UniProt P59533); assay: hT2R panel inhibition, transient HEK293 G16g44, agonist Prop 2.5 μM; format: cell-based; conditions: HEK293, compound at 25 μM; receptor activated to EC80 with the corresponding agonist; read-out: screening result against bitter receptor 51
Chain of hT2R51 (P59533 whole entry): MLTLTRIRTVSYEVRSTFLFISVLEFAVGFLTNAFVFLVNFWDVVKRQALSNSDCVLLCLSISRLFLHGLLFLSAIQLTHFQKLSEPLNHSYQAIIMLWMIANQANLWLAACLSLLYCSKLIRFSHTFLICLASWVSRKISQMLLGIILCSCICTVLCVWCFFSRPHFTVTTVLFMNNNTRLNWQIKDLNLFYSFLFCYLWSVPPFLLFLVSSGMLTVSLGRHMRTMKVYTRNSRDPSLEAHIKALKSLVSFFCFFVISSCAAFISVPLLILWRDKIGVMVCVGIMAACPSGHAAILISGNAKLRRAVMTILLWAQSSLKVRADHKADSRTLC
Procedure: as §1, §2

hT2R63 = assay: hT2R panel inhibition, transient HEK293 G16g44, agonist Caffeine 1 mM or Andrographolide 100 μM; format: cell-based, human; conditions: compound at 25 μM; for screening result against bitter receptor 63: receptor activated to EC80 with the corresponding agonist
Method in brief: as §3

hT2R75 = hT2R75 (Homo sapiens (Human), UniProt P59540); assay: hT2R panel inhibition, transient HEK293 G16g44, agonist Strychnine 1 μM; format: cell-based; conditions: HEK293, read-out: screening result against bitter receptor 75, compound at 25 μM; receptor activated to EC80 with the corresponding agonist
Chain of hT2R75 (P59540 whole entry): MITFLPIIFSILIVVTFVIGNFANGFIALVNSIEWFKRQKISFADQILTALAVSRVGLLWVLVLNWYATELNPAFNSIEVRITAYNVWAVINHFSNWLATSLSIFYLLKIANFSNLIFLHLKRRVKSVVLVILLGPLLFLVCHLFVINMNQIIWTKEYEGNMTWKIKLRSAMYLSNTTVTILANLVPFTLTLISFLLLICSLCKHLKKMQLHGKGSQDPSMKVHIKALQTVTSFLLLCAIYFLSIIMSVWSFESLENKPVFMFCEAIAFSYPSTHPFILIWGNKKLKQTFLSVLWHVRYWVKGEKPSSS
Procedure: as §1, §2

[1] = receptor activated to EC80 with the corresponding agonist, read-out: screening result against bitter receptor 14
[2] = receptor activated to EC80 with the corresponding agonist, read-out: screening result against bitter receptor 16
[3] = receptor activated to EC80 with the corresponding agonist, read-out: screening result against bitter receptor 61
[4] = receptor activated to EC80 with the corresponding agonist, read-out: screening result against bitter receptor 64
[5] = receptor activated to EC80 with the corresponding agonist, read-out: screening result against bitter receptor 71
[6] = receptor activated to EC80 with agonist

Structure (SMILES) | inhibition at 25 µM (hT2R3) | inhibition at 25 µM (hT2R5) | inhibition at 25 µM (hT2R10) | inhibition at 25 µM (hT2R14; [1]) | inhibition at 25 µM (hT2R16; [2]) | screening result against bitter receptor 44 (hT2R44) | screening result against bitter receptor 54 (hT2R54) | screening result against bitter receptor 55 (hT2R55) | inhibition at 25 µM (hT2R61; [3]) | inhibition at 25 µM (hT2R64; [4]) | screening result against bitter receptor 65 (hT2R65) | screening result against bitter receptor 67 (hT2R67) | inhibition at 25 µM (hT2R71; [5]) | inhibition at 25 µM (hT2R7) | inhibition at 25 µM (hT2R51) | screening result against bitter receptor 63 (hT2R63) | other results
O=C(O)c1ccc(CN(Cc2ccccc2)S(=O)(=O)c2ccc(C(=O)O)cc2)cc1 [Example 5-48, 4-((N-benzyl-4-carboxyphenylsulfonamido)methyl)benzoic acid] | 40 to 60% | 20 to 40% | 60 to 80% | > 80% | 20 to 40% | +++ (60% to 80% inhibition = +++) | ++ (40% to 60% inhibition = ++) | ++++ (80% or greater inhibition = ++++) | > 80% | 60 to 80% | ++ (40% to 60% inhibition = ++) | + (20% to 40% inhibition = +) | 60 to 80% |  |  |  | 
COc1cccc(CN(Cc2ccccc2)S(=O)(=O)c2ccc(C(=O)O)cc2)c1 [Example 5-74, 4-(N-benzyl-N-(3-methoxybenzyl)sulfamoyl)benzoic acid] | 20 to 40% | 20 to 40% | 40 to 60% | > 80% | 20 to 40% | + (20% to 40% inhibition = +) | ++ (40% to 60% inhibition = ++) | +++ (60% to 80% inhibition = +++) | > 80% | 20 to 40% | ++ (40% to 60% inhibition = ++) | + (20% to 40% inhibition = +) | 60 to 80% | 20 to 40% | 40 to 60% | ++++ (80% or greater inhibition = ++++) | 
COc1ccc(CN(Cc2ccc(F)c(F)c2)S(=O)(=O)c2ccc(C(=O)O)cc2)cc1 [Example 5-36, 4-(N-(3,4-difluorobenzyl)-N-(4-methoxybenzyl)sulfamoyl)benzoic acid] | 40 to 60% |  | 20 to 40% | > 80% | 20 to 40% | ++ (40% to 60% inhibition = ++) | + (20% to 40% inhibition = +) | ++++ (80% or greater inhibition = ++++) | > 80% | > 80% | ++ (40% to 60% inhibition = ++) |  | 60 to 80% | 20 to 40% |  | +++ (60% to 80% inhibition = +++) | 
COc1ccc(CCN(Cc2ccccc2)S(=O)(=O)c2ccc(C(=O)O)cc2)cc1 [Example 5-81, 4-(N-benzyl-N-(4-methoxyphenethyl)sulfamoyl)benzoic acid] | 20 to 40% |  | 20 to 40% | > 80% | 20 to 40% | ++ (40% to 60% inhibition = ++) |  | +++ (60% to 80% inhibition = +++) | 60 to 80% | 40 to 60% | + (20% to 40% inhibition = +) | + (20% to 40% inhibition = +) | 20 to 40% | 20 to 40% | 20 to 40% | +++ (60% to 80% inhibition = +++) | 
COc1ccc(CN(Cc2ccccc2)S(=O)(=O)c2ccc(CCC(=O)O)cc2)cc1 [Example 5-59, 3-(4-(N-benzyl-N-(4-methoxybenzyl)sulfamoyl)phenyl)propanoic acid] |  |  |  |  |  |  |  |  | 40 to 60% |  |  |  |  |  |  | + (20% to 40% inhibition = +) | inhibition at 25 µM (hT2R75): 20 to 40%
N#Cc1ccc(CN(Cc2ccccc2)S(=O)(=O)c2ccc(C(=O)O)cc2)cc1 [Example 5-91, 4-(N-benzyl-N-(4-cyanobenzyl)sulfamoyl)benzoic acid] | 60 to 80% | 20 to 40% | 40 to 60% | > 80% | 20 to 40% | +++ (60% to 80% inhibition = +++) | + (20% to 40% inhibition = +) | ++++ (80% or greater inhibition = ++++) | > 80% | > 80% |  | + (20% to 40% inhibition = +) | 60 to 80% |  |  | ++++ (80% or greater inhibition = ++++) | 
COc1ccc2c(c1)-c1ccccc1CN(S(=O)(=O)c1ccc(C(=O)O)cc1)C2 [Example 5-106, 4-(2-methoxy-5H-dibenzo[c,e]azepin-6(7H)-ylsulfonyl)benzoic acid] |  |  |  |  |  |  |  |  |  |  |  |  |  |  |  |  | inhibition at 25 µM (hT2R14; receptor activated to EC80 with agonist, read-out: inhibition of bitter receptor 14): > 80%; inhibition at 25 µM (hT2R16; receptor activated to EC80 with agonist, read-out: inhibition of bitter receptor 16): 20 to 40%; inhibition of bitter receptor 44 (hT2R44; [6]): ++ (40% to 60% inhibition = ++); inhibition of bitter receptor 54 (hT2R54; [6]): ++ (40% to 60% inhibition = ++); inhibition of bitter receptor 55 (hT2R55; [6]): ++++ (80% or greater inhibition = ++++); inhibition at 25 µM (hT2R61; receptor activated to EC80 with agonist, read-out: inhibition of bitter receptor 61): 40 to 60%; inhibition of bitter receptor 63 (hT2R63; [6]): ++++ (80% or greater inhibition = ++++); inhibition at 25 µM (hT2R64; receptor activated to EC80 with agonist, read-out: inhibition of bitter receptor 64): 60 to 80%; inhibition of bitter receptor 67 (hT2R67; [6]): + (20% to 40% inhibition = +); inhibition at 25 µM (hT2R71; receptor activated to EC80 with agonist, read-out: inhibition of bitter receptor 71): 20 to 40%
O=C(O)c1ccc(S(=O)(=O)N(Cc2ccccc2)Cc2cccc(F)c2)cc1 [Example 5-79, 4-(N-benzyl-N-(3-fluorobenzyl)sulfamoyl)benzoic acid] | 40 to 60% | 20 to 40% | 20 to 40% | > 80% | 20 to 40% | ++ (40% to 60% inhibition = ++) | + (20% to 40% inhibition = +) | +++ (60% to 80% inhibition = +++) | > 80% | 60 to 80% | ++ (40% to 60% inhibition = ++) | + (20% to 40% inhibition = +) | 60 to 80% |  | > 80% | ++++ (80% or greater inhibition = ++++) | 
